Data set [1] has as its system Alternaria mali. Nature of the data set: Prevention effect of Alternaria mali on apple seedlings (spray, protection value from lesion area ratio; Colby's equation for mixtures). It counts as in vivo. The procedure: (§1) Hereunder, the evaluation of each fungicide was carried out by converting the ratio into a protection value after measuring the lesion area ratio (in percentage). The protectin value was calculated by means of the equation as follows.
(§2) protection value=(1−(lesion area in the division treated with fungicide)/lesion area in the division not treated with fungicide))×100
(§3) An estimated protection value of a mixture of active ingredients was calculated according to the Colby's equation [R. S. Colby, Weeds 15, 20-22 (1967)] and compared with the experimental protection value.
(§4) wherein E is the estimated protection value (additive effect) which will be obtained when the active ingredients A and B are used in a mixture in concentrations a and b, respectively, x is the protection value obtained when the active ingredient A is used in a concentration a, and y is the protection value obtained when the active ingredient B is used in a concentration b. […] A protection value 0 means that the lesion area ratio of the plants in the test group is as large as that of the plants in the untreated control group. A protective value 100 means that the plants in the test group are free from the disease.
The supplied compound (that is, the compound to which number (No.) was attached in Table 1-29), and A (picoxystrobin), B (trifloxystrobin), and C (pyraclostrobin) shown in Table 30 were, alone or in a mixture form, dissolved into dimethylformamide (final concentration: 1% by weight). Thereto were added xylene (final concentration: 0.02% by weight) and Tween 20 (trade name) (final concentration: 0.02% by weight), and then the solution was diluted with water to have a desired effective component concentration (ppm). To this solution was added a spreading agent SINDAIN (trade name, made by Takeda Chemical Industries, Ltd.) containing 20% by weight of polyoxyethylene nonylphenyl ether and 12% by weight of calcium ligninsulfonate so as to have a final concentration of 0.05% by weight. Thus, a spray solution was prepared. The solution was sprayed, at a rate of 10 ml/pot, onto the apple seedlings (cultural variety: Star King Delicous) grown for 3 or 4 weeks in a greenhouse. After one day from the treatment, a suspension containing a 1% yeast extract, a 1% sucrose, and spores (5×10^5/ml) of Alternaria mali was sprayed and inoculated thereto at a rate of 1 ml/pot. After the inoculation, the trees were kept inside a high-humidity box having a temperature of 28° C. for 4 days. Thereafter, the lesion area ratio on the treated leaves was examined.

In data set [2] the test system is Pyrenophora teres. Kind of data set: Protective effect of Pyrenophora teres on barley seedlings (spray, protection value from lesion area ratio; Colby's equation for mixtures). Format: in vivo. The procedure: as §1, §2, §3, §4
The supplied compound (that is, the compound to which number (No.) was attached in Table 1), and A (picoxystrobin), B (trifloxystrobin), C (pyraclostrobin), D (cresoxime methyl), E (epoxiconazole), F (flusilazole) and G (tebuconasole) shown in Table 31 were, alone or in a mixture form, dissolved into dimethylformamide (final concentration: 1% by weight). Thereto were added xylene (final concentration: 0.02% by weight) and Tween 20 (trade name) (final concentration: 0.02% by weight), and then the solution was diluted with water to have a desired effective component concentration (ppm). To this solution was added a spreading agent SINDAIN (trade name, made by Takeda Chemical Industries, Ltd.) containing 20% by weight of polyoxyethylene nonylphenyl ether and 12% by weight of calcium ligninsulfonate so as to have a final concentration of 0.05% by weight. Thus, a spray solution was prepared. The solution was sprayed, at a rate of 40 ml/pot, onto barley seedlings (cultural variety: Shiaga Hasseki No. 5) grown for 1 week in a greenhouse. After air drying, a suspension containing spores (5×10^5/ml) of Pyrenophora teres was sprayed and inoculated thereto at a rate of 2 ml/pot. After the inoculation, the seedlings were kept inside a high-humidity box having a temperature of 24° C. for 18 hours and then put into a room. After 9 days, the lesion area ratio on the treated leaves was investigated.

One may read the melting point as the temperature, or range, at which the solid turns liquid.

As to `COC(=O)N(OC)c1ccccc1COc1ccn(-c2ccc(Cl)cc2)n1` [pyraclostrobin, methyl N-{2-[1-(4-chlorophenyl)-1-H-pyrazol-3-yloxymethyl]phenyl}(N-methoxy)carbamate], the “Lesion area ratio (%)” value is 11.0% in data set [1] (6.3 ppm active ingredient), 11.0% in data set [1] (25.0 ppm active ingredient), 3.7% in data set [1] (100.0 ppm active ingredient) and 12.5% in data set [2] (0.2 ppm active ingredient). Further, the Protection value stood at 77 in data set [1] (6.3 ppm active ingredient), 77 in data set [1] (25.0 ppm active ingredient), 92 in data set [1] (100.0 ppm active ingredient) and 75 in data set [2] (0.2 ppm active ingredient).
In turn, `CCN(c1ccc(Cl)cc1[N+](=O)[O-])S(=O)(=O)c1ccc(C)cc1` [Compound No. 289, 4′-chloro-N-ethyl-2′-nitro-p-toluenesulfonanilide] came in with a melting point of 132.5 to 134 °C. In data set [1] (0.4 ppm active ingredient), the “Lesion area ratio (%)” value is given as 19.8% and the Protection value worked out at 58. In addition, in data set [1] (1.6 ppm active ingredient), the “Lesion area ratio (%)” value came to 19.5% and the Protection value is given as 59. Besides, in data set [1] (6.3 ppm active ingredient), the “Lesion area ratio (%)” value is 3.5% and the Protection value is recorded as 93. In data set [2] (0.5 ppm active ingredient), the “Lesion area ratio (%)” value is recorded as 17.5% and the Protection value was determined as 65.
Consider `C[Si](Cn1cncn1)(c1ccc(F)cc1)c1ccc(F)cc1` [flusilazole], for which, in data set [2] (5.0 ppm active ingredient), the “Lesion area ratio (%)” value came out at 25.0% and the Protection value turned out to be 50.
On to `CC(C)(C)C(O)(CCc1ccc(Cl)cc1)Cn1cncn1` (centres unmarked) [tebuconasole], for which, in data set [2] (5.0 ppm active ingredient), the “Lesion area ratio (%)” value was 22.5% and the Protection value came to 55.
The corresponding values for `Fc1ccc([C@]2(Cn3cncn3)O[C@H]2c2ccccc2Cl)cc1` (racemic) [epoxiconazole, (2RS,3SR)-1-[3-(2-chlorophenyl)-2,3-epoxy-2-(4-fluorophenyl)propyl]-1H-1,2,4-triazole] are 15.0% and 70.
As to `CO/N=C(/C(=O)OC)c1ccccc1CO/N=C(\C)c1cccc(C(F)(F)F)c1` [trifloxystrobin, methyl-(E)-methoxyimino-{(E)-α-[1-(α,α,α-trifluoro-m-tolyl)ethylideneaminooxy]-o-tolyl}acetate], the “Lesion area ratio (%)” value in data set [1] (6.3 ppm active ingredient) was 61.7%; in data set [1] (25.0 ppm active ingredient), 4.7%; in data set [1] (100.0 ppm active ingredient) it was 2.2%; in data set [2] (0.2 ppm active ingredient), 27.5%. For the same compound, the Protection value in data set [1] (6.3 ppm active ingredient) was determined as 0; in data set [1] (25.0 ppm active ingredient) it was 90; in data set [1] (100.0 ppm active ingredient) it was 95; in data set [2] (0.2 ppm active ingredient), 45.
Take `CO/C=C(/C(=O)OC)c1ccccc1COc1cccc(C(F)(F)F)n1` [picoxystrobin, methyl (E)-3-mthoxy-2-{2-[6-(trifluoromethyl)-2-pyridyloxymethyl]phenyl}acrylate]: the “Lesion area ratio (%)” value in data set [1] (6.3 ppm active ingredient) amounted to 11.5%; in data set [1] (25.0 ppm active ingredient), 9.5%; in data set [1] (100.0 ppm active ingredient), 6.2%; in data set [2] (0.2 ppm active ingredient), 17.5%. In addition, the Protection value is 76 in data set [1] (6.3 ppm active ingredient), 80 in data set [1] (25.0 ppm active ingredient), 87 in data set [1] (100.0 ppm active ingredient) and 65 in data set [2] (0.2 ppm active ingredient).
Take `CO/N=C(/C(=O)OC)c1ccccc1COc1ccccc1C` [cresoxime methyl]: in data set [2] (5.0 ppm active ingredient), the “Lesion area ratio (%)” value worked out at 27.5% and the Protection value is listed as 45.

The record behind these values is patent US20040067853A1, “Sulfonamide derivative-containing agricultural and horticultural composition” (priority 2001, published 2004).
